The subject of test [1] is gram-negative and gram-positive bacteria. Particulars: gram-negative bacteria including Pseudomonas aeruginosa and gram-positive bacteria; cited from earlier work.
Test [2] concerns Salmonella enteritidis IID 604. In words: In vitro antibacterial activity (aerobic bacteria), MIC. The format is cell-based. As to conditions: Salmonella enterica; aerobic; Gram -; 10^6 cells/ml; read-out: MIC.
Test [3] concerns Alcaligenes faecalis 0114002. The test is described as above. The class given is cell-based. As to conditions: Alcaligenes faecalis, 0114002, aerobic; Gram -; 10^6 cells/ml; read-out: MIC.
Test [4] concerns Bacillus subtilis PCI 219. The test is described as above. The class given is cell-based. Particulars: PCI219, aerobic, Gram +, 10^6 cells/ml, read-out: MIC.
For test [5], the system named is Morganella morganii IID 602. The description is as above. As to conditions: Morganella morganii, IID602, Gram -, 10^6 cells/ml, read-out: MIC. The format is cell-based. The procedure: (§1) Minimal inhibitory concentrations (MICs) were determined in accordance with the method recommended by Japan Society of Chemotherapy.
A further test deals with P. mirabilis IID 994. The test is described as above. As to conditions: Proteus mirabilis, IID994, Gram -, 10^6 cells/ml. The format is cell-based. The protocol:
as §1

The subject of test [6] is Acinetobacter anitratus IID 876. Described as above. The class given is cell-based. As to conditions: Acinetobacter calcoaceticus, IID876, Gram -, 10^6 cells/ml, read-out: MIC. The protocol:
as §1

Test [7] concerns Proteus vulgaris IFO 3167. Described as above. The class given is cell-based. As to conditions: IFO3167, Gram -, 10^6 cells/ml. The procedure:
as §1

In another test the test system is S. epidermidis IID 866. Described as above. The class given is cell-based. As to conditions: Staphylococcus epidermidis, IID866, Gram +, 10^6 cells/ml. The protocol: as §1
For a further test, the system named is K. pneumoniae 1-220S. The description is as above. The class given is cell-based. Particulars: Klebsiella pneumoniae, 1220S, Gram -, 10^6 cells/ml. The protocol:
as §1

The test system of test [8] is Pseudomonas aeruginosa V-1. The description is as above. As to conditions: Pseudomonas aeruginosa, V1, aerobic; Gram -; 10^6 cells/ml; read-out: MIC. The class given is cell-based. The protocol: as §1
For test [9], the system named is Serratia marcescens IID 618. The test is described as above. The format is cell-based. As to conditions: IID618, Gram -, 10^6 cells/ml. The protocol:
as §1

For test [10], the system named is S. aureus IID 670 (Terajima). The test is described as above. The format is cell-based. As to conditions: Staphylococcus aureus, IID670, Gram +, 10^6 cells/ml. The protocol:
as §1

For test [11], the system named is Staphylococcus aureus 209 P. Described as above. The format is cell-based. Particulars: Gram +, 10^6 cells/ml. The protocol: as §1
The next test deals with E. coli ATCC 10536. Described as above. The format is cell-based. As to conditions: Escherichia coli, ATCC10536, Gram -, 10^6 cells/ml. The procedure:
as §1

The next test deals with Shigella sonnei IID 969. Described as above. The class given is cell-based. As to conditions: IID969, Gram -, 10^6 cells/ml. The protocol: as §1
Test [12] relates to Clostridium difficile I-E. In words: In vitro antibacterial activity (anaerobic bacteria), MIC. The format is cell-based. As to conditions: Clostridioides difficile; anaerobic; Gram +; 10^6 cells/ml; read-out: MIC.
In test [13] the test system is Peptococcus magnus KY 017. The description is as above. Particulars: Finegoldia magna, KY017, Gram +, 10^6 cells/ml, read-out: MIC. The format is cell-based. The procedure:
as §1

In test [14] the test system is Propionibacterium acens 11828. Described as above. The class given is cell-based. As to conditions: anaerobic, Gram +, 10^6 cells/ml, read-out: MIC.
Test [15] concerns Fusobacterium necrophorum S-45. The test is described as above. The format is cell-based. As to conditions: S45, anaerobic, Gram -, 10^6 cells/ml, read-out: MIC.
In the next test the test system is P. cepacia GIFU 518. Kind of test: In vitro antibacterial activity (aerobic bacteria), MIC. The class given is cell-based. Particulars: Burkholderia cepacia, GIFU518; aerobic; Gram -; 10^6 cells/ml; read-out: MIC.
Test [16] deals with Bacteroides fragilis GM 7000. In words: In vitro antibacterial activity (anaerobic bacteria), MIC. The class given is cell-based. As to conditions: GM7000, anaerobic, Gram -, 10^6 cells/ml, read-out: MIC.
A further test concerns P. aeruginosa IID 1210. In words: In vitro antibacterial activity (aerobic bacteria), MIC. The class given is cell-based. Particulars: Pseudomonas aeruginosa, IID1210, aerobic; Gram -; 10^6 cells/ml; read-out: MIC.
Another test has as its system C. ramosum. Kind of test: In vitro antibacterial activity (anaerobic bacteria), MIC. The format is cell-based. Particulars: Thomasclavelia ramosa.
For the next test, the system named is F. varium KYA 8501. Described as above. The class given is cell-based. Particulars: Fusobacterium varium, KYA8501; anaerobic; Gram -; 10^6 cells/ml; read-out: MIC.
Test [17] concerns Klebsiella pneumoniae KY(GN)6445. Kind of test: In vitro antibacterial activity (aerobic bacteria), MIC. The format is cell-based. As to conditions: aerobic, Gram -, 10^6 cells/ml, read-out: MIC.
The subject of a further test is B. fragilis 25285. Kind of test: In vitro antibacterial activity (anaerobic bacteria), MIC. The format is cell-based. Particulars: Bacteroides fragilis, anaerobic, Gram -, 10^6 cells/ml, read-out: MIC.
In test [18] the test system is Yersinia enterocolitica IID 981. In words: microbe, parasite or virus in culture. The format is cell-based. As to conditions: IID981.
For test [19], the system named is B. thetaiotaomicron (0661). In words: In vitro antibacterial activity (anaerobic bacteria), MIC. The class given is cell-based. Particulars: Bacteroides thetaiotaomicron; anaerobic; Gram -; 10^6 cells/ml; read-out: MIC.
The test system of test [20] is Enterobacter cloacae IID 977. Kind of test: In vitro antibacterial activity (aerobic bacteria), MIC. As to conditions: IID977, aerobic, Gram -, 10^6 cells/ml, read-out: MIC. The class given is cell-based.
For a further test, the system named is B. distasonis 8503. Kind of test: In vitro antibacterial activity (anaerobic bacteria), MIC. The class given is cell-based. Particulars: Parabacteroides distasonis, Gram -, 10^6 cells/ml, read-out: MIC.
In test [21] the test system is Eubacterium lentum GAI 5242. Described as above. The format is cell-based. Particulars: Eggerthella lenta, GAI5242; anaerobic; Gram +; 10^6 cells/ml; read-out: MIC.
Another test concerns P. maltophilia GIFU 2491. Kind of test: In vitro antibacterial activity (aerobic bacteria), MIC. The class given is cell-based. Particulars: Stenotrophomonas maltophilia, GIFU2491; aerobic; Gram -; 10^6 cells/ml; read-out: MIC.
The test system of test [22] is Peptostreptococcus anaerobius KYA 27337. In words: In vitro antibacterial activity (anaerobic bacteria), MIC. As to conditions: KYA27337, anaerobic, Gram +, 10^6 cells/ml, read-out: MIC. The format is cell-based.
Test [23] concerns Escherichia coli NIHJ JC-2. In words: In vitro antibacterial activity (aerobic bacteria), MIC. The format is cell-based. As to conditions: NIHJJC2, aerobic, Gram -, 10^6 cells/ml, read-out: MIC.
The test system of test [24] is Veillonella parvula KYA 10790. In words: In vitro antibacterial activity (anaerobic bacteria), MIC. The class given is cell-based. Particulars: KYA10790, anaerobic, Gram -, 10^6 cells/ml, read-out: MIC.
The next test deals with B. fragilis 0558. The description is as above. The class given is cell-based. As to conditions: Bacteroides fragilis, anaerobic, Gram -, 10^6 cells/ml, read-out: MIC.
For a further test, the system named is C. perfringens KYA 13123. In words: microbe, parasite or virus in culture. Particulars: Clostridium perfringens, KYA13123. The class given is cell-based.
The next test deals with P. aeruginosa IFO 12689. Kind of test: In vitro antibacterial activity (aerobic bacteria), MIC. The class given is cell-based. Particulars: Pseudomonas aeruginosa, IFO12689; aerobic; Gram -; 10^6 cells/ml; read-out: MIC.
Test [25] has as its system Citrobacter freundii IID 976. The test is described as above. The class given is cell-based. Particulars: Citrobacter freundii, IID976, aerobic; Gram -; 10^6 cells/ml; read-out: MIC.
Another test deals with Pst micros UPI 5464-1. Kind of test: microbe, parasite or virus in culture. Particulars: anaerobic; Gram +; 10^6 cells/ml; read-out: MIC. The format is cell-based.

Values after ≈ are worked out from the molar mass of the structure shown.

Take `CCn1cc(C(=O)O)c(=O)c2cc(F)c(N3CCNCC3)cc21` [norfloxacin]: the antibacterial activity entry in test [1] is reported as “high antibacterial activity”.

As for `Cc1c(N2CCC(N)C2)c(F)cc2c(=O)c(C(=O)O)cn(C3CC3)c12` (centres unmarked) [Exp. 18, 7-(3-Amino-1-pyrrolidinyl)-1-cyclopropyl-6-fluoro-1,4-dihydro-8-methyl-4-oxo-3-quinolinecarboxylic acid], the MIC is 0.025 µg/mL (≈ 0.0724 µM) in [2]; 0.1 µg/mL (≈ 0.29 µM) in test [3]; 0.025 µg/mL (≈ 0.0724 µM) in test [4]; 0.05 µg/mL (≈ 0.145 µM) in test [5]; 0.0125 µg/mL (≈ 0.0362 µM) in the test on P. mirabilis IID 994; 0.05 µg/mL (≈ 0.145 µM) in [6]. Also, the MIC was 0.0125 µg/mL (≈ 0.0362 µM) in [7]; 0.05 µg/mL (≈ 0.145 µM) against S. epidermidis IID 866; 0.05 µg/mL (≈ 0.145 µM) in the test with K. pneumoniae 1-220S; 0.05 µg/mL (≈ 0.145 µM) in test [8]; 0.05 µg/mL (≈ 0.145 µM) in [9]; 0.05 µg/mL (≈ 0.145 µM) in test [10]. Moreover, the MIC worked out at 0.05 µg/mL (≈ 0.145 µM) in test [11]; 0.0125 µg/mL (≈ 0.0362 µM) against E. coli ATCC 10536; 0.0125 µg/mL (≈ 0.0362 µM) against Shigella sonnei IID 969; 0.78 µg/mL (≈ 2.26 µM) in test [12]; 0.05 µg/mL (≈ 0.145 µM) in [13]; 0.78 µg/mL (≈ 2.26 µM) in [14]. In addition, the MIC in [15] is 0.1 µg/mL (≈ 0.29 µM); with P. cepacia GIFU 518, 0.2 µg/mL (≈ 0.579 µM); in [16], 0.2 µg/mL (≈ 0.579 µM); in the test on P. aeruginosa IID 1210 it was 0.2 µg/mL (≈ 0.579 µM); against C. ramosum it was 1.56 µg/mL (≈ 4.52 µM); with F. varium KYA 8501, 0.78 µg/mL (≈ 2.26 µM). The MIC amounted to 0.025 µg/mL (≈ 0.0724 µM) in test [17]; 0.2 µg/mL (≈ 0.579 µM) with B. fragilis 25285; 0.05 µg/mL (≈ 0.145 µM) in [18]; 0.78 µg/mL (≈ 2.26 µM) in [19]; 0.025 µg/mL (≈ 0.0724 µM) in [20]; 0.39 µg/mL (≈ 1.13 µM) in the test on B. distasonis 8503. Moreover, the MIC was 0.2 µg/mL (≈ 0.579 µM) in test [21]; 0.1 µg/mL (≈ 0.29 µM) with P. maltophilia GIFU 2491; 0.1 µg/mL (≈ 0.29 µM) in test [22]; at most 0.0032 µg/mL in test [23]; 0.1 µg/mL (≈ 0.29 µM) in [24]; 0.1 µg/mL (≈ 0.29 µM) in the test on B. fragilis 0558. In addition, the MIC against C. perfringens KYA 13123 came out at 0.05 µg/mL (≈ 0.145 µM); with P. aeruginosa IFO 12689 it was 0.2 µg/mL (≈ 0.579 µM); in test [25], 0.025 µg/mL (≈ 0.0724 µM); in the test on Pst micros UPI 5464-1, 0.1 µg/mL (≈ 0.29 µM).
